Results on one molecule are retold here after patent publication US11857513B2, “Selective inhibitor of exon 20 insertion mutant EGFR” (Taiho Pharmaceutical Co., Ltd., priority 2016, dated 2024).

Broadly, the IC50 is the midpoint of a concentration-inhibition curve.

The target of the experiment is T1, EGFR D770_N771insSVD (insSVD) (Homo sapiens, UniProt P00533, INS770SVD).
T1 construct: expressed in transfected cells; host or cells: NIH-3T3 (mouse fibroblasts), PiggyBac PB-CMV-MCS-EF1-RFP+Puro vector
T1 sequence (P00533 with tags, fused parts or gaps INS770SVD): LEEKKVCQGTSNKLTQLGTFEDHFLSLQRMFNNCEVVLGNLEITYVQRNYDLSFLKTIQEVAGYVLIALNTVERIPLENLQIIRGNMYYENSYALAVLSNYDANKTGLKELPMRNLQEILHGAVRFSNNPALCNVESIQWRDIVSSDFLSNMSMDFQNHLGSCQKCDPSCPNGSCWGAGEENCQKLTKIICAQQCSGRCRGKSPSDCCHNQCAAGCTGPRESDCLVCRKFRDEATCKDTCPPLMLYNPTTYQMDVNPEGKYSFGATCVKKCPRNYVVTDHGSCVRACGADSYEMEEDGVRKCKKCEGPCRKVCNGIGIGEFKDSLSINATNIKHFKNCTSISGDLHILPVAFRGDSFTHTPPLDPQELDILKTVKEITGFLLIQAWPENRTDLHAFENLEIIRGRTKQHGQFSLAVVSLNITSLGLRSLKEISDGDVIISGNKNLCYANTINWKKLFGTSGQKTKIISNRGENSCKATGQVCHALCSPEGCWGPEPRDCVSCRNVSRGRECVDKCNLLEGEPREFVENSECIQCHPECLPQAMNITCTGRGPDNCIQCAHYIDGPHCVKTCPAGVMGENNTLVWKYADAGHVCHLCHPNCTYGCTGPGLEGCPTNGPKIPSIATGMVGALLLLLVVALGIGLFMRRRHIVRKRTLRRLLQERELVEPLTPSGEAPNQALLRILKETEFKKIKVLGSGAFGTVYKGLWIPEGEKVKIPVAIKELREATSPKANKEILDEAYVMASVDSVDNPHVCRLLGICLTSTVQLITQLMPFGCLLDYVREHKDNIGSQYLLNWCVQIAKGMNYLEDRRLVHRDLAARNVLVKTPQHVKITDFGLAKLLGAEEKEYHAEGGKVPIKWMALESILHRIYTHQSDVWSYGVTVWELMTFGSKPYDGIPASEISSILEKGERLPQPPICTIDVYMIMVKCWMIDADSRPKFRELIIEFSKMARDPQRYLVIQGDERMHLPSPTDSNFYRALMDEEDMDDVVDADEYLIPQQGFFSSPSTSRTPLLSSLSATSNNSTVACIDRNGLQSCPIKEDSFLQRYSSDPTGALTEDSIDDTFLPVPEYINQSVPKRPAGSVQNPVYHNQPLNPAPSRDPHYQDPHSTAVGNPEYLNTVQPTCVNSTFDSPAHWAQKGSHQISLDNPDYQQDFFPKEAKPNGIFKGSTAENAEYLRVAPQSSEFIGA
The experiment in a line: EGFR autophosphorylation inhibitory activity in NIH3T3-EGFRinsSVD cells. The class given is cell-based. As to the method: The autophosphorylation inhibitory activity of a compound against wild-type EGFR and mutant EGFR was evaluated using NIH-3T3 cells, which are mouse fibroblast cell lines to which human EGFR gene was introduced. NIH-3T3 cells were maintained in a D-MEM (high-glucose) medium (Wako Pure Chemical Industries, Ltd.) containing 10% newborn calf serum (NBCS), 1,500 mg/L sodium hydrogen carbonate, and 100 U/mL penicillin/[…] streptomycin (Thermo Fisher Scientific).
To evaluate EGFR-autophosphorylation inhibitory activity, NIH3T3 cells to which human EGFR was introduced were suspended in respective mediums. These cell suspensions were individually seeded into a 60-mm dish or 6-well flat-bottom plate, and incubated in a 5% CO2-containing incubator at 37° C. for 1 day. […] The protein concentration was measured using a BCA protein assay kit (Thermo Fisher Scientific), and each sample was adjusted to a protein concentration suitable for measurement of phosphorylated EGFR expression. The phosphorylated EGFR expression was measured using a Simple Western (trademark) assay system (ProteinSimple) in accordance with the manufacturer's recommended protocol. […]
Additionally, the selectivity for wild-type EGFR and EGFR exon 20 insertion mutation was calculated using the following formula. […]

Turning to `C=CC(=O)N[C@H]1C=C(C)c2c(-c3cnc4ccccc4c3)c3c(N)ncnc3n2C1` [Compound A, (S)—N-(4-amino-6-methyl-5-(quinolin-3-yl)-8,9-dihydropyrimido[5,4-b]indolizin-8-yl)acrylamide], for the setting “NIH3T3-EGFRinsSVD, 6 hours, read-out: IC50 phosphorylated EGFR, insSVD”, the IC50 stood at 33 nM. Further, the “IC50 Ratio=IC50 (WT)/IC50 (insSVD)” value (NIH3T3 cells, phosphorylated EGFR) worked out at 17.1.
